# ChEMBL document CHEMBL3045862, “PRE-CLINICAL AND CLINICAL PHARMACOKINETICS OF THE DIASTEREOMERS OF ARTEETHER, A POTENT ANTIMALARIAL” (Med Chem Res, 2004)
# Tests used:
# Rhesus monkey [1] = experiment: Volume of distribution in Macaca mulatta (Rhesus monkey) at 50 mg/kg, po; assay type: ADME, organism-based; design: dose 50 mg/kg, route oral; details: in vivo
# [2] = Cmax in Rattus norvegicus Sprague-Dawley (rat) at 30 mg/kg, administered intramuscularly; assay type: ADME, organism-based; design: dose 30 mg/kg, route intramuscular; details: in vivo, im
# [3] = Elimination half life in Rattus norvegicus Sprague-Dawley (rat) at 2 mg/kg, iv; assay type: ADME, organism-based; design: dose 2 mg/kg, route intravenous; details: in vivo, read-out: beta t1/2 (converted)
# [4] = Mean residence time in Macaca mulatta (Rhesus monkey) at 7.5 mg/kg, administered intramuscularly; assay type: ADME, organism-based; design: dose 7.5 mg/kg, route intramuscular; details: in vivo, im
# [5] = Cmax in Rattus norvegicus Sprague-Dawley (rat) at 30 mg/kg, po; assay type: ADME, organism-based; design: dose 30 mg/kg, route oral; details: in vivo
# [6] = Volume of distribution in Rattus norvegicus Sprague-Dawley (rat) at 2 mg/kg, iv; assay type: ADME, organism-based; design: dose 2 mg/kg, route intravenous; details: in vivo
# [7] = Tmax in Rattus norvegicus Sprague-Dawley (rat) at 9 mg/kg, po; assay type: ADME, organism-based; design: dose 9 mg/kg, route oral; details: in vivo
# Rhesus monkey [8] = experiment: AUC (0 to infinity) in Macaca mulatta (Rhesus monkey) at 50 mg/kg, po; assay type: ADME, organism-based, Plasma; design: time infinity, dose 50 mg/kg, route oral; details: in vivo
# [9] = Mean residence time in Rattus norvegicus Sprague-Dawley (rat) at 9 mg/kg, po; assay type: ADME, organism-based; design: dose 9 mg/kg, route oral; details: in vivo
# [10] = Volume of distribution in Macaca mulatta (Rhesus monkey) at 4 mg/kg, iv; assay type: ADME, organism-based; design: dose 4 mg/kg, route intravenous; details: in vivo
# Rattus norvegicus [11] = experiment: Volume of distribution in Rattus norvegicus Sprague-Dawley (rat) at 17.5 mg/kg, po; assay type: ADME, organism-based; design: dose 17.5 mg/kg, route oral; details: in vivo
# [12] = Elimination half life in Rattus norvegicus Sprague-Dawley (rat) at 30 mg/kg, po; assay type: ADME, organism-based; design: dose 30 mg/kg, route oral; details: in vivo, read-out: beta t1/2 (converted)
# Rattus norvegicus [13] = experiment: Dose normalized AUC in Rattus norvegicus Sprague-Dawley (rat) at 30 mg/kg, administered intramuscularly; assay type: ADME, organism-based; design: dose 30 mg/kg, route intramuscular; details: in vivo, im
# [14] = Tmax in Homo sapiens (human) at 150 mg; assay type: ADME, organism-based; details: in vivo
# [15] = Elimination half life in Rattus norvegicus Sprague-Dawley (rat) at 17.5 mg/kg, administered intramuscularly; assay type: ADME, organism-based; design: dose 17.5 mg/kg, route intramuscular; details: in vivo, im, read-out: beta t1/2 (converted)
# Rhesus monkey [16] = experiment: AUC (0 to infinity) in Macaca mulatta (Rhesus monkey) at 7.5 mg/kg, administered intramuscularly; assay type: ADME, organism-based, Plasma; design: time infinity, dose 7.5 mg/kg, route intramuscular; details: in vivo, im
# Rattus norvegicus [17] = experiment: AUC (0 to infinity) in Rattus norvegicus Sprague-Dawley (rat) at 30 mg/kg, administered intramuscularly; assay type: ADME, organism-based, Plasma; design: time infinity, dose 30 mg/kg, route intramuscular; details: in vivo, im
# [18] = Elimination half life in Macaca mulatta (Rhesus monkey) at 7.5 mg/kg, administered intramuscularly; assay type: ADME, organism-based; design: dose 7.5 mg/kg, route intramuscular; details: in vivo, im, read-out: beta t1/2 (converted)
# Rattus norvegicus [19] = experiment: AUC (0 to infinity) in Rattus norvegicus Sprague-Dawley (rat) at 30 mg/kg, po; assay type: ADME, organism-based, Plasma; design: time infinity, dose 30 mg/kg, route oral; details: in vivo
# [20] = Volume of distribution in Homo sapiens (human) at 150 mg; assay type: ADME, organism-based; details: in vivo
# [21] = Tmax in Rattus norvegicus Sprague-Dawley (rat) at 30 mg/kg, administered intramuscularly; assay type: ADME, organism-based; design: dose 30 mg/kg, route intramuscular; details: in vivo, im
# [22] = Mean residence time in Rattus norvegicus Sprague-Dawley (rat) at 2 mg/kg, iv; assay type: ADME, organism-based; design: dose 2 mg/kg, route intravenous; details: in vivo
# Rattus norvegicus [23] = experiment: AUC (0 to infinity) in Rattus norvegicus Sprague-Dawley (rat) at 9 mg/kg, administered intramuscularly; assay type: ADME, organism-based, Plasma; design: time infinity, dose 9 mg/kg, route intramuscular; details: in vivo, im
# [24] = Tmax in Macaca mulatta (Rhesus monkey) at 7.5 mg/kg, administered intramuscularly; assay type: ADME, organism-based; design: dose 7.5 mg/kg, route intramuscular; details: in vivo, im
# Rattus norvegicus [25] = experiment: AUC (0 to infinity) in Rattus norvegicus Sprague-Dawley (rat) at 17.5 mg/kg, po; assay type: ADME, organism-based, Plasma; design: time infinity, dose 17.5 mg/kg, route oral; details: in vivo
# [26] = Tmax in Rattus norvegicus Sprague-Dawley (rat) at 17.5 mg/kg, po; assay type: ADME, organism-based; design: dose 17.5 mg/kg, route oral; details: in vivo
# [27] = Elimination half life in Rattus norvegicus Sprague-Dawley (rat) at 9 mg/kg, po; assay type: ADME, organism-based; design: dose 9 mg/kg, route oral; details: in vivo, read-out: beta t1/2 (converted)
# [28] = Mean residence time in Rattus norvegicus Sprague-Dawley (rat) at 17.5 mg/kg, administered intramuscularly; assay type: ADME, organism-based; design: dose 17.5 mg/kg, route intramuscular; details: in vivo, im
# Rattus norvegicus [29] = experiment: Volume of distribution in Rattus norvegicus Sprague-Dawley (rat) at 30 mg/kg, administered intramuscularly; assay type: ADME, organism-based; design: dose 30 mg/kg, route intramuscular; details: in vivo, im
# [30] = Cmax in Macaca mulatta (Rhesus monkey) at 50 mg/kg, po; assay type: ADME, organism-based; design: dose 50 mg/kg, route oral; details: in vivo
# Rattus norvegicus [31] = experiment: Volume of distribution in Rattus norvegicus Sprague-Dawley (rat) at 9 mg/kg, po; assay type: ADME, organism-based; design: dose 9 mg/kg, route oral; details: in vivo
# [32] = Cmax in Rattus norvegicus Sprague-Dawley (rat) at 17.5 mg/kg, administered intramuscularly; assay type: ADME, organism-based; design: dose 17.5 mg/kg, route intramuscular; details: in vivo, im
# [33] = Elimination half life in Macaca mulatta (Rhesus monkey) at 4 mg/kg, iv; assay type: ADME, organism-based; design: dose 4 mg/kg, route intravenous; details: in vivo, read-out: beta t1/2 (converted)
# Rattus norvegicus [34] = experiment: Clearance in Rattus norvegicus Sprague-Dawley (rat) at 30 mg/kg, po; assay type: ADME, organism-based; design: dose 30 mg/kg, route oral; details: in vivo
# Homo sapiens = species on record: Homo sapiens; experiment: Dose normalized AUC in Homo sapiens (human) at 150 mg; assay type: ADME, organism-based; details: in vivo
# Rhesus monkey [35] = experiment: Volume of distribution in Macaca mulatta (Rhesus monkey) at 7.5 mg/kg, administered intramuscularly; assay type: ADME, organism-based; design: dose 7.5 mg/kg, route intramuscular; details: in vivo, im
# [36] = Elimination half life in Rattus norvegicus Sprague-Dawley (rat) at 30 mg/kg, administered intramuscularly; assay type: ADME, organism-based; design: dose 30 mg/kg, route intramuscular; details: in vivo, im, read-out: beta t1/2 (converted)
# [37] = Cmax in Rattus norvegicus Sprague-Dawley (rat) at 9 mg/kg, po; assay type: ADME, organism-based; design: dose 9 mg/kg, route oral; details: in vivo
# [38] = Tmax in Rattus norvegicus Sprague-Dawley (rat) at 9 mg/kg, administered intramuscularly; assay type: ADME, organism-based; design: dose 9 mg/kg, route intramuscular; details: in vivo, im
# [39] = Mean residence time in Rattus norvegicus Sprague-Dawley (rat) at 30 mg/kg, administered intramuscularly; assay type: ADME, organism-based; design: dose 30 mg/kg, route intramuscular; details: in vivo, im
# Rattus norvegicus [40] = experiment: Clearance in Rattus norvegicus Sprague-Dawley (rat) at 9 mg/kg, po; assay type: ADME, organism-based; design: dose 9 mg/kg, route oral; details: in vivo
compound,measurement,setting,value
CCO[C@@H]1O[C@@H]2O[C@]3(C)CC[C@H]4[C@H](C)CC[C@@H]([C@H]1C)[C@@]24OO3 [ALPHA-ARTEETHER],Vd,Rhesus monkey [1],7148.8 L/kg
same,Cmax,[2],93.3 ng/mL
same,half-life,[3],0.55 h
same,MRT,[4],9.2 h
same,Cmax,[5],103 ng/mL
same,Vd,[6],3.6 L/kg
same,Tmax,[7],5 min
same,AUC,Rhesus monkey [8],6.6 ng·h/mL
same,MRT,[9],4.3 h
same,Vd,[10],4.1 L/kg
same,Vd,Rattus norvegicus [11],244.3 L/kg
same,half-life,[12],1.5 h
same,AUC/dose,Rattus norvegicus [13],66.8 ng·h/mL
same,Tmax,[14],4.8 min
same,half-life,[15],21.7 h
same,AUC,Rhesus monkey [16],641.8 ng·h/mL
same,AUC,Rattus norvegicus [17],601.1 ng·h/mL
same,half-life,[18],6.7 h
same,AUC,Rattus norvegicus [19],111.5 ng·h/mL
same,Vd,[20],12 L/kg
same,Tmax,[21],0.167 h
same,MRT,[22],0.6 h
same,AUC,Rattus norvegicus [23],1058.5 ng·h/mL
same,Tmax,[24],1 h
same,AUC,Rattus norvegicus [25],50.9 ng·h/mL
same,Tmax,[26],5 min
same,half-life,[27],2.4 h
same,MRT,[28],23.5 h
same,Vd,Rattus norvegicus [29],253.3 L/kg
same,Cmax,[30],3.9 ng/mL
same,Vd,Rattus norvegicus [31],122.2 L/kg
same,Cmax,[32],184 ng/mL
same,half-life,[33],1.8 h
same,CL,Rattus norvegicus [34],1330 mL/min/kg
same,AUC/dose,Homo sapiens,1721.9 ng·h/mL
same,Vd,Rhesus monkey [35],36.8 L/kg
same,half-life,[36],11.9 h
same,Cmax,[37],33.4 ng/mL
same,Tmax,[38],0.5 h
same,MRT,[39],14.4 h
same,CL,Rattus norvegicus [40],600 mL/min/kg
